Assay results taken from patent publication US7138361B2, “Herbicidal heterocycles” (E. I. du Pont de Nemours and Company, priority 2000, dated 2006).

Columns and labels:
Format in all cases: in vivo
kochia (Kochia scoparia) = assay: Test C preemergence
Description: (§1) Seeds of plant species selected from bermudagrass (Cynodon dactylon), Surinam grass (Brachiaria decumbens), cocklebur (Xanthium strumarium), corn (Zea mays), crabgrass (Digitaria sanguinalis), woolly cupgrass (Eriochloa villosa), giant foxtail (Setaria faberii), goosegrass (Eleusine indica), johnsongrass (Sorghum halepense), kochia (Kochia scoparia), lambsquarters (Chenopodium album), morningglory (Ipomoea hederacea), yellow nutsedge (Cyperus esculentus), pigweed (Amaranthus retroflexus), common ragweed (Ambrosia elatior), soybean (Glycine max) and velvetleaf (Abutilon theophrasti) were planted and treated preemergence with test chemicals formulated in a non-phytotoxic solvent mixture which included a surfactant.
(§2) At the same time, plants selected from these crop and weed species and also winter barley (Hordeum vulgare), blackgrass (Alopecurus myosuroides), canary grass (Phalaris minor), chickweed (Stellaria media), downy brome (Bromus tectorum), green foxtail (Setaria viridis), Italian ryegrass (Lolium multiflorum), wheat (Triticum aestivum), wild oat (Avena fatua) and windgrass (Apera spica-venti) were treated with postemergence applications of some of the test chemicals formulated in the same manner. Plants ranged in height from 2 to 18 cm (1- to 4-leaf stage) for postemergence treatments. Plant species in the flooded paddy test consisted of rice (Oryza saliva), smallflower flatsedge (Cyperus difformis), duck salad (Heteranthera limosa) and barnyardgrass (Echinochloa crus-galli) grown to the 2-leaf stage for testing. Treated plants and controls were maintained in a greenhouse for 12 to 14 days, after which time all species were compared to controls and visually evaluated. Plant response ratings, summarized in Table C, are based on a scale of 0 to 100 where 0 is no effect and 100 is complete control. A dash (-) response means no test result.

[1] = system: johnsongrass (Sorghum halepense); assay: Test C preemergence
Description: as §1, §2

Sunflower = assay: Test C preemergence; conditions: Rate 125 g/ha; scale 0 to 100, 0 no effect, 100 complete control
Description: as §1, §2

[2] = system: bermudagrass (Cynodon dactylon); assay: Test C preemergence
Description: as §1, §2

corn (Zea mays) [3] = assay: Test C preemergence
Description: as §1, §2

[4] = system: giant foxtail (Setaria faberii); assay: Test C preemergence
Description: as §1, §2

[5] = system: morningglory (Ipomoea hederacea); assay: Test C preemergence
Description: as §1, §2

[6] = system: yellow nutsedge (Cyperus esculentus); assay: Test C preemergence
Description: as §1, §2

[7] = system: velvetleaf (Abutilon theophrasti); assay: Test C preemergence
Description: as §1, §2

[8] = system: cocklebur (Xanthium strumarium); assay: Test B postemergence
Method in brief: (§3)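 Greenhouse test: chemicals are formulated in a surfactant-containing non-phytotoxic solvent and applied either preemergence to planted seeds or postemergence to plants 2 to 18 cm tall. Response is rated visually versus controls after 13 to 15 days, 0 meaning no effect and 100 complete control.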

[9] = system: Surinam grass (Brachiaria decumbens); assay: Test B postemergence
Method in brief: as §3

wild oat (Avena fatua) = assay: Test B postemergence
Method in brief: as §3

[10] = system: wheat (Triticum aestivum); assay: Test B postemergence
Method in brief: as §3

corn (Zea mays) [11] = assay: Test B postemergence
Method in brief: as §3

[12] = system: crabgrass (Digitaria sanguinalis); assay: Test B postemergence
Method in brief: as §3

[13] = system: lambsquarters (Chenopodium album); assay: Test B postemergence
Method in brief: as §3

[14] = system: giant foxtail (Setaria faberii); assay: Test B postemergence
Method in brief: as §3

[15] = system: blackgrass (Alopecurus myosuroides); assay: Test B postemergence
Method in brief: as §3

[16] = system: barnyardgrass (Echinochloa crus-galli); assay: Test B postemergence
Method in brief: as §3

[17] = system: pigweed (Amaranthus retroflexus); assay: Test B postemergence
Method in brief: as §3

[18] = system: velvetleaf (Abutilon theophrasti); assay: Test B postemergence
Method in brief: as §3

[19] = system: morning glory (Ipomoea hederacea); assay: Test B postemergence
Method in brief: as §3

[20] = Rate 125 g/ha, scale 0 to 100, 0 no effect, 100 complete control
[21] = preemergence, Rate 31 g/ha, scale 0 to 100
[22] = preemergence, Rate 62 g/ha, scale 0 to 100
[23] = preemergence, Rate 250 g/ha, scale 0 to 100, 0 no effect, 100 complete control
[24] = Rate 62 g/ha, scale 0 to 100, 0 no effect, 100 complete control
[25] = Rate 125 g/ha, scale 0 (no effect) to 100 (complete control), 13 to 15 days
[26] = Rate 250 g/ha, scale 0 (no effect) to 100 (complete control), 13 to 15 days
[27] = Rate 500 g/ha, scale 0 to 100, 0 is no effect, 100 is complete control, 13 to 15 days

Cc1ccc(N2CCC(n3ccc(C(C)(C)C)n3)C2=O)cc1OCCCl (stereo not drawn) [Compound 109]
10: Plant response rating, Johnsongrass [1, 22]
90: Plant response rating, Kochia (kochia (Kochia scoparia); [21]) | Plant response rating, Sunflower (Sunflower) | Plant response rating, Foxtail, Giant [4, 23] | Plant response rating, Morningglory [5, 22] | Plant response rating, Cocklebur [8, 27] | Plant response rating, Lambsquarters [13, 26] | Plant response rating, Lambsquarters [13, 27] | Plant response rating, Pigweed [17, 27] | Plant response rating, Morningglory [19, 24]
40: Plant response rating, Cocklebur [8, 25]
30: Plant response rating, Morningglory [5, 21]
0: Plant response rating, Johnsongrass [1, 21] | Plant response rating, Corn (corn (Zea mays) [3]; [20]) | Plant response rating, Corn (corn (Zea mays) [3]; [21]) | Plant response rating, Corn (corn (Zea mays) [3]; [22]) | Plant response rating, Corn (corn (Zea mays) [3]; [23]) | Plant response rating, Foxtail, Giant [4, 21] | Plant response rating, Foxtail, Giant [4, 22] | Plant response rating, Nutsedge [6, 20] | Plant response rating, Nutsedge [6, 21] | Plant response rating, Nutsedge [6, 22] | Plant response rating, Nutsedge [6, 23] | Plant response rating, Surinam grass [9, 24] | Plant response rating, Surinam grass [9, 25] | Plant response rating, Surinam grass [9, 27] | Plant response rating, Wild Oat (wild oat (Avena fatua); [24]) | Plant response rating, Wild Oat (wild oat (Avena fatua); [26]) | Plant response rating, Wild Oat (wild oat (Avena fatua); [27]) | Plant response rating, Wheat [10, 24] | Plant response rating, Wheat [10, 26] | Plant response rating, Wheat [10, 27] | Plant response rating, Corn (corn (Zea mays) [11]; [24]) | Plant response rating, Corn (corn (Zea mays) [11]; [25]) | Plant response rating, Corn (corn (Zea mays) [11]; [26]) | Plant response rating, Corn (corn (Zea mays) [11]; [27]) | Plant response rating, Crabgrass [12, 24] | Plant response rating, Crabgrass [12, 25] | Plant response rating, Crabgrass [12, 26] | Plant response rating, Crabgrass [12, 27] | Plant response rating, Foxtail, Giant [14, 24] | Plant response rating, Foxtail, Giant [14, 25] | Plant response rating, Foxtail, Giant [14, 27] | Plant response rating, Blackgrass [15, 24] | Plant response rating, Blackgrass [15, 25] | Plant response rating, Blackgrass [15, 26] | Plant response rating, Blackgrass [15, 27] | Plant response rating, Barnyardgrass [16, 24] | Plant response rating, Barnyardgrass [16, 25] | Plant response rating, Barnyardgrass [16, 26] | Plant response rating, Barnyardgrass [16, 27] | Plant response rating, Velvetleaf [18, 24]
100: Plant response rating, Kochia (kochia (Kochia scoparia); [20]) | Plant response rating, Kochia (kochia (Kochia scoparia); [22]) | Plant response rating, Kochia (kochia (Kochia scoparia); [23]) | Plant response rating, Bermudagrass [2, 20] | Plant response rating, Bermudagrass [2, 21] | Plant response rating, Bermudagrass [2, 22] | Plant response rating, Bermudagrass [2, 23] | Plant response rating, Morningglory [5, 20] | Plant response rating, Morningglory [5, 23] | Plant response rating, Velvetleaf [7, 20] | Plant response rating, Velvetleaf [7, 22] | Plant response rating, Velvetleaf [7, 23] | Plant response rating, Morningglory [19, 26] | Plant response rating, Morningglory [19, 27]
50: Plant response rating, Johnsongrass [1, 20] | Plant response rating, Johnsongrass [1, 23] | Plant response rating, Velvetleaf [7, 21] | Plant response rating, Pigweed [17, 24]
60: Plant response rating, Cocklebur [8, 24] | Plant response rating, Pigweed [17, 26]
20: Plant response rating, Foxtail, Giant [4, 20] | Plant response rating, Surinam grass [9, 26] | Plant response rating, Foxtail, Giant [14, 26]
80: Plant response rating, Lambsquarters [13, 24] | Plant response rating, Velvetleaf [18, 26] | Plant response rating, Velvetleaf [18, 27]
70: Plant response rating, Cocklebur [8, 26]

CCOc1cc(N2CCC(n3ccc(C(C)(C)C)n3)C2=O)ccc1C (stereo not drawn) [Compound 106]
100: Plant response rating, Kochia (kochia (Kochia scoparia); [20]) | Plant response rating, Kochia (kochia (Kochia scoparia); [21]) | Plant response rating, Kochia (kochia (Kochia scoparia); [22]) | Plant response rating, Kochia (kochia (Kochia scoparia); [23]) | Plant response rating, Johnsongrass [1, 20] | Plant response rating, Johnsongrass [1, 23] | Plant response rating, Bermudagrass [2, 20] | Plant response rating, Bermudagrass [2, 21] | Plant response rating, Bermudagrass [2, 22] | Plant response rating, Bermudagrass [2, 23] | Plant response rating, Foxtail, Giant [4, 23] | Plant response rating, Morningglory [5, 20] | Plant response rating, Morningglory [5, 23] | Plant response rating, Nutsedge [6, 23] | Plant response rating, Velvetleaf [7, 20] | Plant response rating, Velvetleaf [7, 22] | Plant response rating, Velvetleaf [7, 23] | Plant response rating, Lambsquarters [13, 27] | Plant response rating, Morningglory [19, 27]
80: Plant response rating, Sunflower (Sunflower) | Plant response rating, Morningglory [5, 21] | Plant response rating, Nutsedge [6, 20] | Plant response rating, Velvetleaf [18, 27]
0: Plant response rating, Corn (corn (Zea mays) [3]; [20]) | Plant response rating, Corn (corn (Zea mays) [3]; [21]) | Plant response rating, Corn (corn (Zea mays) [3]; [22]) | Plant response rating, Foxtail, Giant [4, 21] | Plant response rating, Foxtail, Giant [4, 22] | Plant response rating, Surinam grass [9, 25] | Plant response rating, Surinam grass [9, 27] | Plant response rating, Wild Oat (wild oat (Avena fatua); [27]) | Plant response rating, Wheat [10, 27] | Plant response rating, Corn (corn (Zea mays) [11]; [25]) | Plant response rating, Corn (corn (Zea mays) [11]; [27]) | Plant response rating, Crabgrass [12, 25] | Plant response rating, Crabgrass [12, 27] | Plant response rating, Foxtail, Giant [14, 25] | Plant response rating, Foxtail, Giant [14, 27] | Plant response rating, Blackgrass [15, 25] | Plant response rating, Blackgrass [15, 27] | Plant response rating, Barnyardgrass [16, 25] | Plant response rating, Barnyardgrass [16, 27]
40: Plant response rating, Corn (corn (Zea mays) [3]; [23]) | Plant response rating, Foxtail, Giant [4, 20]
10: Plant response rating, Nutsedge [6, 21] | Plant response rating, Nutsedge [6, 22]
90: Plant response rating, Morningglory [5, 22] | Plant response rating, Velvetleaf [7, 21] | Plant response rating, Cocklebur [8, 25] | Plant response rating, Cocklebur [8, 27] | Plant response rating, Pigweed [17, 27]
70: Plant response rating, Johnsongrass [1, 22]
30: Plant response rating, Johnsongrass [1, 21]
